Data taken from patent US10160755B2 (Plexxikon Inc., priority 2015, dated 2018).

How the values were obtained:
FLT3-D835Y = biological target: T1, FLT3-D835Y (Homo sapiens, UniProt P36888, D835Y); experiment: FLT3-D835Y biochemical kinase assay (AlphaScreen)
T1 construct: purchased Invitrogen PV3967
T1 sequence (P36888 27-993 D835Y): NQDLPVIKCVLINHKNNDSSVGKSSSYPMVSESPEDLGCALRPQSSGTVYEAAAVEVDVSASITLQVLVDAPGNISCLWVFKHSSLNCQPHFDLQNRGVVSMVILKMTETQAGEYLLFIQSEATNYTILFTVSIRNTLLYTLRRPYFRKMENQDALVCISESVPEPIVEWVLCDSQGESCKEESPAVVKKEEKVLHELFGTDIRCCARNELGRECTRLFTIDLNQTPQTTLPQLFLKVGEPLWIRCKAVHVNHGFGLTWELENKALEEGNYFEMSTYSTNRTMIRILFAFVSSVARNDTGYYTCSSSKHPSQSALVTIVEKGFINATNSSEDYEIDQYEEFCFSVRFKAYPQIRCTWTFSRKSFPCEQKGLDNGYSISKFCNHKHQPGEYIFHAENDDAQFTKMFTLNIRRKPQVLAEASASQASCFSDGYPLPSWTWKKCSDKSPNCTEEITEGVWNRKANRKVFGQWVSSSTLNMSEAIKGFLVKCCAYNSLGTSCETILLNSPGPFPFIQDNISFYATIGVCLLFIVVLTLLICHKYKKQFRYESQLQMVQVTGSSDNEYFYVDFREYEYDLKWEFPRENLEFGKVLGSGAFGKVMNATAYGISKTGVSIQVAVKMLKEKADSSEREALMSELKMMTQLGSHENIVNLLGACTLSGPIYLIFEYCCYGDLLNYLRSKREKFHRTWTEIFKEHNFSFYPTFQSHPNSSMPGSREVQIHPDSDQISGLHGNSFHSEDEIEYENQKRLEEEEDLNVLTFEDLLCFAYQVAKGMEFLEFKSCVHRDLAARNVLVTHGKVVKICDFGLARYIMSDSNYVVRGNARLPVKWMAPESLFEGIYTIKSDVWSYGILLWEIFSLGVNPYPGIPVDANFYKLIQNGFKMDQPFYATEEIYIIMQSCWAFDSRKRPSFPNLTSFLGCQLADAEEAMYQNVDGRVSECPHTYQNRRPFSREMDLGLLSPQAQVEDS
How it was run: (§1)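 AlphaScreen read-out of tyrosine phosphorylation of a 30 nM biotinylated poly(Glu4-Tyr) substrate, captured on streptavidin donor and PY20 acceptor beads at room temperature. ATP for IC50 work was 100 μM with FLT3-ITD and 10 μM with FLT3-D835Y; reduced 580 nm proximity signal reflects kinase inhibition.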

FLT3-ITD = biological target: T2, FLT3-ITD (Homo sapiens, UniProt P36888); experiment: FLT3-ITD biochemical kinase assay (AlphaScreen)
T2 construct: FLT3-ITD; Invitrogen #PV6190
T2 sequence (P36888 1-993): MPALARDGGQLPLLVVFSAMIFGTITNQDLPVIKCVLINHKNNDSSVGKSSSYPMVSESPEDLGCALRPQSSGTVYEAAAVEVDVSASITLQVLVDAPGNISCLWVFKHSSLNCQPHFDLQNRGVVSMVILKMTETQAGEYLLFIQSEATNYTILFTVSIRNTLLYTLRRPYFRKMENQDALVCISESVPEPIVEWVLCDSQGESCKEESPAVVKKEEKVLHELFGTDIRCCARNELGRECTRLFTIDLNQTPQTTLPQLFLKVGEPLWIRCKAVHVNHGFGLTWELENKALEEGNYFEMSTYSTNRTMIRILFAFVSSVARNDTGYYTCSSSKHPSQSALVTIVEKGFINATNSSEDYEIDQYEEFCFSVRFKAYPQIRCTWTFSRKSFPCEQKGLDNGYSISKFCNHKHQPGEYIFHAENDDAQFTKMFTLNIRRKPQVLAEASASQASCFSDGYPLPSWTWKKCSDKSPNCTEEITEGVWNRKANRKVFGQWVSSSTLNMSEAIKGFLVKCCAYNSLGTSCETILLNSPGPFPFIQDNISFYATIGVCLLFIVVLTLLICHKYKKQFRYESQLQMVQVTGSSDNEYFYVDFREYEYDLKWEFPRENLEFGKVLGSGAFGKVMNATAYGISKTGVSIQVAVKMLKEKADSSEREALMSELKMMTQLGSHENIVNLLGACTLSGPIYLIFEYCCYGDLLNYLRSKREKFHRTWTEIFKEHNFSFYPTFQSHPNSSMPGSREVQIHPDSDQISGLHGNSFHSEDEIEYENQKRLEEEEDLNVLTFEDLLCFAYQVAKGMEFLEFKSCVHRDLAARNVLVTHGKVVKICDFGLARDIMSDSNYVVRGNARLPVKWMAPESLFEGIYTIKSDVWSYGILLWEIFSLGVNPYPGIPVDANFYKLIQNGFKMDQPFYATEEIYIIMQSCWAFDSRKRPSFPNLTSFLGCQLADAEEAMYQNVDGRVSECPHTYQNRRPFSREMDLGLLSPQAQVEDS
How it was run: as §1

SMILES	IC50 (FLT3-D835Y)	IC50 (FLT3-ITD)
CC(C)(C)n1cnc2ccc(-c3c[nH]c4ncc(-c5ccnc(N6CCCCC6)c5)nc34)cc21 [P-338, 7-(3-tert-butylbenzimidazol-5-yl)-2-[2-(1-piperidyl)-4-pyridyl]-5H-pyrrolo[2,3-b]pyrazine]	0.0001 to 1 µM	0.0001 to 1 µM
CC(C)(C)n1cnc2ccc(-c3c[nH]c4ncc(-c5ccc(N6CCOCC6)nc5)nc34)cc21 [P-326, 4-[5-[7-(3-tert-butylbenzimidazol-5-yl)-5H-pyrrolo[2,3-b]pyrazin-2-yl]-2-pyridyl]morpholine]	0.0001 to 1 µM	0.0001 to 1 µM
CCN1CCN(c2cc(-c3cnc4[nH]cc(-c5ccc6ncn(C7CCCNC7)c6c5)c4n3)ccn2)CC1 (stereo not shown) [P-327, 2-[2-(4-ethylpiperazin-1-yl)-4-pyridyl]-7-[3-(3-piperidyl)benzimidazol-5-yl]-5H-pyrrolo[2,3-b]pyrazine]	0.0001 to 1 µM	0.0001 to 1 µM
Cc1ncc(-c2cnc3[nH]cc(-c4ccc5ncn(C(C)(C)C)c5c4)c3n2)cn1 [P-289, 7-(3-tert-butylbenzimidazol-5-yl)-2-(2-methylpyrimidin-5-yl)-5H-pyrrolo[2,3-b]pyrazine]	0.0001 to 1 µM	0.0001 to 1 µM
CN1CCN(c2cccc(-c3cnc4[nH]cc(-c5ccc6ncn(C7CCCNC7)c6c5)c4n3)c2)CC1 (stereo not shown) [P-332, 2-[3-(4-methylpiperazin-1-yl)phenyl]-7-[3-(3-piperidyl)benzimidazol-5-yl]-5H-pyrrolo[2,3-b]pyrazine]	0.0001 to 1 µM	0.0001 to 1 µM
COc1ncc(-c2cnc3[nH]cc(-c4ccc5ncn(C6CCCNC6)c5c4)c3c2)cn1 (stereo not shown) [P-276, 5-(2-methoxypyrimidin-5-yl)-3-[3-(3-piperidyl)benzimidazol-5-yl]-1H-pyrrolo[2,3-b]pyridine]	0.0001 to 1 µM	0.0001 to 1 µM
CCN1CCN(c2ccc(-c3cnc4[nH]cc(-c5ccc6ncn(C7CCCNC7)c6c5)c4n3)cn2)CC1 (stereo not shown) [P-366, 2-[6-(4-ethylpiperazin-1-yl)-3-pyridyl]-7-[3-(3-piperidyl)benzimidazol-5-yl]-5H-pyrrolo[2,3-b]pyrazine]	0.0001 to 1 µM	0.0001 to 1 µM
CCN1CCN(c2ccc(-c3cnc4[nH]cc(-c5ccc6ncn(C7CCCNC7)c6c5)c4n3)cc2)CC1 (stereo not shown) [P-359, 2-[4-(4-ethylpiperazin-1-yl)phenyl]-7-[3-(3-piperidyl)benzimidazol-5-yl]-5H-pyrrolo[2,3-b]pyrazine]	0.0001 to 1 µM	0.0001 to 1 µM
CN1CCN(c2ccc(-c3cnc4[nH]cc(-c5ccc6ncn(C(C)(C)C)c6c5)c4n3)cc2)CC1 [P-341, 7-(3-tert-butylbenzimidazol-5-yl)-2-[4-(4-methylpiperazin-1-yl)phenyl]-5H-pyrrolo[2,3-b]pyrazine]	0.0001 to 1 µM	0.0001 to 1 µM
COc1cc(-c2cnc3[nH]cc(-c4ccc5ncn(C(C)(C)C)c5c4)c3c2)c(OC)nn1 [P-292, 1-tert-butyl-6-[5-(3,6-dimethoxypyridazin-4-yl)-1H-pyrrolo[2,3-b]pyridin-3-yl]benzimidazole]	0.0001 to 1 µM	0.0001 to 1 µM
CC(C)(C)n1cnc2ccc(-c3c[nH]c4ncc(-c5ccc(N6CCCS6(=O)=O)cc5)cc34)cc21 [P-320, 2-[4-[3-(3-tert-butylbenzimidazol-5-yl)-1H-pyrrolo[2,3-b]pyridin-5-yl]phenyl]-1,2-thiazolidine 1,1-dioxide]	0.0001 to 1 µM	0.0001 to 1 µM
FC(F)n1cc(-c2cnc3[nH]cc(-c4ccc5ncn(C6CCCNC6)c5c4)c3c2)cn1 (stereo not shown) [P-274, 5-[1-(difluoromethyl)pyrazol-4-yl]-3-[3-(3-piperidyl)benzimidazol-5-yl]-1H-pyrrolo[2,3-b]pyridine]	0.0001 to 1 µM	0.0001 to 1 µM
CC(C)(C)n1cnc2ccc(-c3c[nH]c4ncc(-c5ccc(N6CCC(F)(F)CC6)nc5)nc34)cc21 [P-356, 7-(3-tert-butylbenzimidazol-5-yl)-2-[6-(4,4-difluoro-1-piperidyl)-3-pyridyl]-5H-pyrrolo[2,3-b]pyrazine]	0.0001 to 1 µM	0.0001 to 1 µM
Cc1ncc(C#Cc2cnc3[nH]cc(-c4ccc5ncn(C6CCCNC6)c5c4)c3n2)cn1 (stereo not shown) [P-285, 2-[2-(2-methylpyrimidin-5-yl)ethynyl]-7-[3-(3-piperidyl)benzimidazol-5-yl]-5H-pyrrolo[2,3-b]pyrazine]	0.0001 to 1 µM	0.0001 to 1 µM
CCN1CCN(c2cc(-c3cnc4[nH]cc(-c5ccc6ncn(C(C)(C)C)c6c5)c4n3)ccn2)CC1 [P-328, 7-(3-tert-butylbenzimidazol-5-yl)-2-[2-(4-ethylpiperazin-1-yl)-4-pyridyl]-5H-pyrrolo[2,3-b]pyrazine]	0.0001 to 1 µM	0.0001 to 1 µM
CC(C)(C)n1cnc2ccc(-c3n[nH]c4ncc(-c5ccnc(N6CCOCC6)c5)cc34)cc21 [P-297, 4-[4-[3-(3-tert-butylbenzimidazol-5-yl)-1H-pyrazolo[3,4-b]pyridin-5-yl]-2-pyridyl]morpholine]	0.0001 to 1 µM	0.0001 to 1 µM
CCN1CCN(c2ccc(-c3cnc4[nH]cc(-c5ccc6ncn(C(C)(C)C)c6c5)c4n3)cn2)CC1 [P-365, 7-(3-tert-butylbenzimidazol-5-yl)-2-[6-(4-ethylpiperazin-1-yl)-3-pyridyl]-5H-pyrrolo[2,3-b]pyrazine]	0.0001 to 1 µM	0.0001 to 1 µM
CC(C)(C)n1cnc2ccc(-c3c[nH]c4ncc(-c5cccc(N6CCCCC6)c5)nc34)cc21 [P-336, 7-(3-tert-butylbenzimidazol-5-yl)-2-[3-(1-piperidyl)phenyl]-5H-pyrrolo[2,3-b]pyrazine]	0.0001 to 1 µM	0.0001 to 1 µM
COc1cc(-c2cnc3[nH]cc(-c4ccc5ncn(C6CCCN(S(C)(=O)=O)C6)c5c4)c3n2)ccn1 (stereo not shown) [P-281, 2-(2-methoxy-4-pyridyl)-7-[3-(1-methylsulfonyl-3-piperidyl)benzimidazol-5-yl]-5H-pyrrolo[2,3-b]pyrazine]	0.0001 to 1 µM	0.0001 to 1 µM
Cn1cnc2ccc(-c3c[nH]c4nnc(Cl)cc34)cc21 [P-313, 3-chloro-5-(3-methylbenzimidazol-5-yl)-7H-pyrrolo[2,3-c]pyridazine]	0.0001 to 1 µM	0.0001 to 1 µM
Cc1cc(C#Cc2cnc3[nH]cc(-c4ccc5ncn(C(C)(C)C)c5c4)c3n2)cc(C)n1 [P-282, 7-(3-tert-butylbenzimidazol-5-yl)-2-[2-(2,6-dimethyl-4-pyridyl)ethynyl]-5H-pyrrolo[2,3-b]pyrazine]	0.0001 to 1 µM	0.0001 to 1 µM
FC(F)(F)Cn1cc(-c2cnc3[nH]cc(-c4ccc5ncn(C6CCCNC6)c5c4)c3c2)cn1 (stereo not shown) [P-275, 1-(3-piperidyl)-6-[5-[1-(2,2,2-trifluoroethyl)pyrazol-4-yl]-1H-pyrrolo[2,3-b]pyridin-3-yl]benzimidazole]	0.0001 to 1 µM	0.0001 to 1 µM
O=S1(=O)CCCN1c1ccc(-c2cnc3[nH]cc(-c4ccc5ncn(C6CCCNC6)c5c4)c3c2)cc1 (stereo not shown) [P-319, 2-[4-[3-[3-(3-piperidyl)benzimidazol-5-yl]-1H-pyrrolo[2,3-b]pyridin-5-yl]phenyl]-1,2-thiazolidine 1,1-dioxide]	0.0001 to 1 µM	0.0001 to 1 µM
